Consider 15 molecules from US11178871B2, “Herbicidal pyrimidine compounds” (BASF SE, priority 2016, dated 2021).

Common to all, as to format: in vivo
The subject of test [1] is Lolium multiflorum. The test can be described thus: greenhouse test, post-emergence treatment, LOLMU. The source says: (§1) The culture containers used were plastic flowerpots containing loamy sand with approximately 3.0% of humus as the substrate. The seeds of the test plants were sown separately for each species.
(§2) For the post-emergence treatment, the test plants were first grown to a height of 3 to 15 cm, depending on the plant habit, and only then treated with the active ingredients which had been suspended or emulsified in water. For this purpose, the test plants were either sown directly and grown in the same containers, or they were first grown separately as seedlings and transplanted into the test containers a few days prior to treatment.
(§3) Depending on the species, the plants were kept at 10-25° C. or 20-35° C., respectively.
(§4) The test period extended over 2 to 4 weeks. During this time, the plants were tended, and their response to the individual treatments was evaluated.
(§5) Evaluation was carried out using a scale from 0 to 100. 100 means no emergence of the plants, or complete destruction of at least the aerial moieties, and 0 means no damage, or normal course of growth. A good herbicidal activity is given at values of at least 70 and a very good herbicidal activity is given at values of at least 85.
(§6) The plants used in the greenhouse experiments were of the following species: […]

The test system of test [2] is Apera spica-venti. Nature of the test: greenhouse test, pre-emergence treatment, APESV. Put shortly: (§7)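 Scores run from 0, normal growth, to 100, no emergence or aerial parts destroyed, assessed after 2 to 4 weeks at 10-25 °C or 20-35 °C depending on species. Actives in water were spray-applied immediately post-sowing onto loamy sand with approximately 3.0% humus; hoods kept on until rooting.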

In test [3] the test system is Echinocloa crus-galli. The test can be described thus: greenhouse test, pre-emergence treatment, ECHCG. Put shortly: as §7
In test [4] the test system is Agrostis stolonifera. The test can be described thus: greenhouse test, pre-emergence treatment, AGSST. To be noted: 2000 g/ha.
From the text: as §1
(§8) For the pre-emergence treatment, the active ingredients, which had been suspended or emulsified in water, were applied directly after sowing by means of finely distributing nozzles. The containers were irrigated gently to promote germination and growth and subsequently covered with transparent plastic hoods until the plants had rooted. This cover caused uniform germination of the test plants, unless this had been impaired by the active ingredients.
as §3, §4, §5, §6

In test [5] the test system is Setaria faberi. Nature of the test: greenhouse test, pre-emergence treatment, SETFA.
From the text: as §1, §8, §3, §4, §5, §6

In test [6] the test system is Matricaria inodora. Nature of the test: greenhouse test, post-emergence treatment, MATIN. To be noted: 2000 g/ha.
From the text: as §1, §2, §3, §4, §5, §6

The subject of test [7] is Poa annua. The test can be described thus: greenhouse test, pre-emergence treatment, POAAN.
From the text: as §1, §8, §3, §4, §5, §6

The subject of test [8] is Alopecurus myosuroides. Nature of the test: greenhouse test, post-emergence treatment, ALOMY. To be noted: post-emergence. The gist of the method:
(§9)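 Visual rating on a 0-100 scale (100 = aerial parts destroyed or no emergence) was made 2-4 weeks after treating plants of 3-15 cm height with water-suspended or emulsified compound. Pots held loamy sand with approximately 3.0% humus; temperature 10-25 °C or 20-35 °C according to species.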

In test [9] the test system is Echinocloa crus-galli. The test can be described thus: greenhouse test, post-emergence treatment, ECHCG. To be noted: post-emergence. The gist of the method:
as §9

The test system of test [10] is Amaranthus retroflexus. Nature of the test: greenhouse test, post-emergence treatment, AMARE. Put shortly:
as §9

The subject of test [11] is Setaria viridis. The test can be described thus: greenhouse test, post-emergence treatment, SETVI. Conditions: 1000 g/ha. The gist of the method:
as §9

Test [12] concerns Polygonum convolvulus. The test can be described thus: greenhouse test, post-emergence treatment, POLCO. To be noted: 500 g/ha.
From the text: as §1, §2, §3, §4, §5, §6

The test system of test [13] is Poa annua. Nature of the test: greenhouse test, post-emergence treatment, POAAN.
From the text: as §1, §2, §3, §4, §5, §6

In test [14] the test system is Agrostis stolonifera. The test can be described thus: greenhouse test, post-emergence treatment, AGSST. To be noted: 500 g/ha.
From the text: as §1, §2, §3, §4, §5, §6

Test [15] deals with Abutilon theophrasti. Nature of the test: greenhouse test, post-emergence treatment, ABUTH. Put shortly: as §9
For test [16], the system named is Avena fatua. The test can be described thus: greenhouse test, post-emergence treatment, AVEFA. Conditions: 500 g/ha. Put shortly:
as §9

Molecules are shown by their SMILES.

`OCc1nc(C2CC2)ncc1-c1cc(F)ccc1Cl` [Ex. 14]: the herbicidal activity result is “good (A good herbicidal activity is given at values of at least 70)” in test [1] (250 g/ha) and “very good (a very good herbicidal activity is given at values of at least 85)” in test [2] (250 g/ha).

On to `Cc1nc(C2CC2)ncc1-c1ccccc1C(F)(F)F` [Ex. 17], for which the herbicidal activity entry in test [3] (2000 g/ha), in [4] and in [5] (2000 g/ha) was “very good (a very good herbicidal activity is given at values of at least 85)” each time.

As to `N#CC(C#N)c1nc(C2CC2)ncc1-c1ccccc1Br` [Ex. 25], the herbicidal activity result in test [6], in test [4] and in [7] (2000 g/ha) was “very good (a very good herbicidal activity is given at values of at least 85)” each time.

Turning to `Brc1ccccc1-c1cnc(C2CC2)nc1C(Br)Br` [Ex. 27], the herbicidal activity entry in test [3] (2000 g/ha), in test [4], in test [8] (2000 g/ha), in test [2] (2000 g/ha), in [9] (2000 g/ha) and in test [10] (2000 g/ha) was “very good (a very good herbicidal activity is given at values of at least 85)” in each case.

Take `Clc1ccccc1-c1cnc(C2CC2)nc1C(Br)Br` [Ex. 35]: the herbicidal activity entry in [3] (2000 g/ha), in test [4], in test [8] (2000 g/ha), in [2] (2000 g/ha), in [9] (2000 g/ha) and in [10] (2000 g/ha) was “very good (a very good herbicidal activity is given at values of at least 85)” each time.

Regarding `N#CC(C#N)c1nc(C2CC2)ncc1-c1ccc(F)cc1Br` [Ex. 36], the herbicidal activity entry in [6], in test [4] and in [7] (2000 g/ha) was “very good (a very good herbicidal activity is given at values of at least 85)” in each case.

Consider `Clc1ccccc1-c1cnc(C2CC2)nc1C1CCOC1` (stereo not shown) [Ex. 59], for which the herbicidal activity entry in [3] (1000 g/ha) is “very good (a very good herbicidal activity is given at values of at least 85)”; in [5] (1000 g/ha), “good (A good herbicidal activity is given at values of at least 70)”; in [9] (1000 g/ha), “good (A good herbicidal activity is given at values of at least 70)”; in [11] it was “very good (a very good herbicidal activity is given at values of at least 85)”.

On to `Cc1ccc(-c2nc(C3CC3)ncc2-c2ccccc2Br)o1` [Ex. 121], for which the herbicidal activity result in test [12], in test [8] (500 g/ha), in [1] (500 g/ha) and in [9] (500 g/ha) was “very good (a very good herbicidal activity is given at values of at least 85)” throughout.

For `Clc1ccccc1-c1cnc(C2CC2)nc1-c1ccnnc1` [Ex. 234], the herbicidal activity result in [2] (2000 g/ha) is “very good (a very good herbicidal activity is given at values of at least 85)”; in test [13] (2000 g/ha) it was “good (A good herbicidal activity is given at values of at least 70)”.

For the molecule `Cc1ncc(-c2nc(C3CC3)ncc2-c2ccccc2Cl)o1` [Ex. 244], the herbicidal activity result in [3] (500 g/ha) is given as “very good (a very good herbicidal activity is given at values of at least 85)”; in test [12] it was “good (A good herbicidal activity is given at values of at least 70)”; in test [8] (500 g/ha), “good (A good herbicidal activity is given at values of at least 70)”; in [2] (500 g/ha) it was “very good (a very good herbicidal activity is given at values of at least 85)”; in test [7] (500 g/ha), “very good (a very good herbicidal activity is given at values of at least 85)”; in [13] (500 g/ha), “good (A good herbicidal activity is given at values of at least 70)”.

For `OC(c1cccs1)C(O)c1nc(C2CC2)ncc1-c1ccccc1Cl` (stereo not shown) [Ex. 247], the herbicidal activity result in test [3] (500 g/ha), in test [8] (500 g/ha), in test [2] (500 g/ha), in [7] (500 g/ha), in test [14] and in test [10] (500 g/ha) was “very good (a very good herbicidal activity is given at values of at least 85)” each time.

Take `OC(c1nc(Cl)ccc1Cl)C(O)c1nc(C2CC2)ncc1-c1ccccc1Cl` (stereo not shown) [Ex. 259]: the herbicidal activity result in test [3] (2000 g/ha) was “good (A good herbicidal activity is given at values of at least 70)”; in [8] (2000 g/ha) it was “very good (a very good herbicidal activity is given at values of at least 85)”; in test [2] (2000 g/ha) it was “good (A good herbicidal activity is given at values of at least 70)”; in test [13] (2000 g/ha) it was “very good (a very good herbicidal activity is given at values of at least 85)”; in test [9] (2000 g/ha), “very good (a very good herbicidal activity is given at values of at least 85)”.

Consider `Cc1ocnc1-c1nc(C2CC2)ncc1-c1ccccc1Cl` [Ex. 267], for which the herbicidal activity result in test [3] (2000 g/ha), in test [15] (2000 g/ha), in test [7] (2000 g/ha), in test [13] (2000 g/ha) and in test [9] (2000 g/ha) was “very good (a very good herbicidal activity is given at values of at least 85)” each time.

Turning to `Cc1nc(C)c(-c2nc(C3CC3)ncc2-c2cc(C(F)F)ccc2Cl)o1` [Ex. 291], the herbicidal activity entry in test [3] (500 g/ha) is reported as “very good (a very good herbicidal activity is given at values of at least 85)”; in test [8] (500 g/ha) it was “good (A good herbicidal activity is given at values of at least 70)”; in test [1] (500 g/ha) it was “good (A good herbicidal activity is given at values of at least 70)”; in test [2] (500 g/ha) it was “very good (a very good herbicidal activity is given at values of at least 85)”; in test [16], “good (A good herbicidal activity is given at values of at least 70)”; in test [7] (500 g/ha) it was “very good (a very good herbicidal activity is given at values of at least 85)”.

As for `COCC(=Cc1nc(C2CC2)ncc1-c1ccccc1Cl)COC` [Ex. 293], the herbicidal activity entry in [3] (1000 g/ha) is reported as “good (A good herbicidal activity is given at values of at least 70)”; in [15] (1000 g/ha) it was “good (A good herbicidal activity is given at values of at least 70)”; in test [5] (1000 g/ha) it was “very good (a very good herbicidal activity is given at values of at least 85)”.
